Measured values: patent US20260209260A1, “VECTORIZED NHC IRIDIUM(III) COMPLEXES AND USE THEREOF IN PHOTODYNAMIC THERAPY AND/OR DIAGNOSTIC” (CENTRE NATIONAL DE LA RECHERCHE SCIENTIFIQUE, priority 2022, published 2026)
“And” between values parts separate entries of the source, which are not always exact repeats. Equal values may be shown once. Read-outs that look alike come from different tables or passages of the source.

Legend:
[1] = Singlet oxygen (1O2) production, ABDA indicator, blue LED 458 nm; settings: for depletion of the ABDA absorbance at 380 nm (1O2 production): 4.5 mWcm^−2, 5-45 min, PBS pH 7.4; for consumption of ABDA (1O2 production): 4.5 mWcm^−2
Method: The detection of […] generation of iridium complexes was measured with 9,10-anthracenediyl-bis(methylene)dimalonic acid (ABDA) as an ^1O2 indicator and Ru(bpy)3Cl2 as a standard according to a modified reported method. Experiments were conducted using ABDA (50 μM) in phosphate buffered solution (PBS, pH 7.4), the respective iridium complex, i.e. (I-e), (I-g), (I-h), (I-j), (II-e), (II-g), (II-h), (II-j), (III-i), (III-j), (III-k), (III-h), (IV-i), (IV-j), (IV-k), (IV-h) and Ru(bpy)3Cl2 (5 μM) in a mixture of H2O/CH3CN (50/50) with a ratio ABDA/complex of […] and a final volume of 3 mL. ABDA oxidation was monitored by UV-vis spectrophotometry. The samples were irradiated with a blue custom-made LED plate (458 nm, 4.5 mWcm^−2). During irradiation UV-vis absorption spectra were recorded at 5, 10, 15, 20, 30 and 45 min. The ^1O2 generation was followed by monitoring the absorption spectral change at 380 nm of ABDA versus time.

[2] = system: C4-2B prostate cancer cells (PSMA-positive); experiment: Cell viability assay (MTT), dark and blue light; type: cell-based, Human; settings: for Photosensitizing index (PI): dark vs blue light; for SI (vs MC3T3) C4-2b Blue / SI (vs NIH-3T3) C4-2b Blue: blue light 458 nm
Method in brief: (§1)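 Cells in RPMI with 10% FBS were treated with complexes (0.1% v/v DMSO) for 72 h in the dark, or for 8 h then irradiated 10 min with 458 nm blue LEDs (9.6 W) and kept dark to 72 h. Viability read by MTT formazan absorbance at 570 nm.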

[3] = system: PC-3 prostate cancer cells (PSMA-negative); experiment: Cell viability assay (MTT), dark and blue light; type: cell-based, Human; settings: for Photosensitizing index (PI): PC3, dark vs blue light
Method in brief: as §1

MCF7 breast cancer cells = experiment: Cell viability assay (MTT), dark and blue light; type: cell-based, Human; settings: for GI50: read-out: GI50
Method in brief: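 Absorbance of MTT formazan at 570 nm gives viability after 72 h exposure to the complexes in 0.1% (v/v) DMSO. Irradiated wells got 10 min of 458 nm light after 8 h of dark incubation.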

[4] = system: MiaPaCa2 pancreas cancer cells; experiment: Cell viability assay (MTT), dark and blue light; type: cell-based, Human
Method in brief: (§2)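 Viability determined by MTT assay (A570) after 72 h treatment in 0.1% DMSO, with or without a 10 min irradiation at 8 h. Data from at least three independent experiments run in triplicate.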

A549 lung cancer cells = experiment: Cell viability assay (MTT), dark and blue light; type: cell-based, Human; settings: for GI50: read-out: GI50
Method in brief: as §2

[5] = 8 h in the dark, blue light 458 nm 10 min, then dark up to 72 h, read-out: GI50 C4-2b Blue
[6] = C4-2b, blue light, read-out: GI50
[7] = PC3, blue light, read-out: GI50
[8] = in the dark, 72 h, read-out: GI50 PC-3 Dark

| Compound | depletion of the ABDA absorbance at 380 nm (1O2 production) [1] | GI50 [2, 5] [µM] | GI50 [2, 6] [µM] | Photosensitizing index (PI) ([2]; C4-2b) | GI50 ([2]; C4-2b, dark, read-out: GI50) [µM] | SI (vs MC3T3) C4-2b Blue [2] | SI (vs NIH-3T3) C4-2b Blue [2] | SI (vs MC3T3) C4-2b Dark ([2]; dark) | GI50 [3, 7] [µM] | Photosensitizing index (PI) [3] | GI50 ([3]; PC3, dark, read-out: GI50) [µM] | SI (vs MC3T3) PC-3 Blue ([3]; blue light 458 nm) | GI50 [3, 8] [µM] | consumption of ABDA (1O2 production) [1] | other results |
| --- | --- | --- | --- | --- | --- | --- | --- | --- | --- | --- | --- | --- | --- | --- | --- |
| F[P-](F)(F)(F)(F)F.O=C(O)CC[C@H](NC(=O)N[C@@H](CCCCNC(=O)CCn1cc[n+]2[c]1[Ir-3]13([c]4ccccc4-c4c5ccccc5cc[n+]41)([c]1ccccc1-c1c4ccccc4cc[n+]13)[n+]1ccccc1-2)C(=O)O)C(=O)O [III-h] | fast depletion of the ABDA absorbance at 380 nm | 0.31 | 0.31 | 12.9 | 4 | 27.0 | 61.9 | 13.0 | 0.68 | 31.2 | 21.2 | 12.2 | 21.2 |  | GI50 ([3]; 8 h in the dark, blue light 458 nm 10 min, then dark up to 72 h, read-out: GI50 PC-3 Blue): 0.68 µM; SI (vs NIH-3T3) PC-3 Blue ([3]; blue light 458 nm): 28.0 |
| F[P-](F)(F)(F)(F)F.O=C(O)CC[C@H](NC(=O)N[C@@H](CCCCNC(=O)CCn1cc[n+]2[c]1[Ir-3]13([c]4c(sc5ccccc45)-c4cccc[n+]41)([c]1c(sc4ccccc14)-c1cccc[n+]13)[n+]1ccccc1-2)C(=O)O)C(=O)O [III-j] | fast depletion of the ABDA absorbance at 380 nm | 0.52 | 0.52 | 21.7 | 11.3 | 24.0 | 20.7 | >22.1 | 1.94 | 30.0 | 58.2 | 6.6 | 58.2 | fast complete consumption of ABDA | SI (vs NIH-3T3) C4-2b Dark ([2]; dark): >8.8; GI50 ([2]; in the dark, 72 h, read-out: GI50 C4-2b Dark): 11.3 µM; SI (vs MC3T3) PC-3 Dark ([3]; dark): >4.3; SI (vs NIH-3T3) PC-3 Dark ([3]; dark): >1.7 |
| F[P-](F)(F)(F)(F)F.O=C(NCCCn1cc[n+]2[c]1[Ir-3]13([c]4c(sc5ccccc45)-c4cccc[n+]41)([c]1c(sc4ccccc14)-c1cccc[n+]13)[n+]1ccccc1-2)[c-]1cccc1.[Fe+2].c1cc[cH-]c1 [IV-j] | fast depletion of the ABDA absorbance at 380 nm |  |  |  |  |  |  |  |  | 121.7 | 7.3 |  |  | fast complete consumption of ABDA | SI (vs MC3T3) ([3]; PC3, dark): 2.2; GI50 (MCF7 breast cancer cells; MCF7, blue light): 0.72 µM and 0.42 µM; SI (vs NIH-3T3) (MCF7 breast cancer cells; MCF7, dark): 9.5; Photosensitizing index (PI) (MCF7 breast cancer cells; MCF7, dark vs blue light): 15.7; GI50 (MCF7 breast cancer cells; MCF7, dark): 6.6 µM; Photosensitizing index (PI) ([4]; MiaPaCa2, dark vs blue light): 21.9; SI (vs MC3T3) ([4]; MiapaCa2, blue light): 24.4; SI (vs MC3T3) ([4]; MiapaCa2, dark): 4.7; SI (vs NIH-3T3) ([4]; MiapaCa2, dark): 17.9; GI50 (A549 lung cancer cells; A549, blue light): 0.37 µM; SI (vs MC3T3) (A549 lung cancer cells; A549, dark): 2.5; SI (vs NIH-3T3) (A549 lung cancer cells; A549, dark): 9.7; Photosensitizing index (PI) (A549 lung cancer cells; A549, dark vs blue light): 17.6; GI50 (A549 lung cancer cells; A549, dark): 6.5 µM |
